Reference: PMC7997032, “Organic synthesis and anti-influenza A virus activity of cyclobakuchiols A, B, C, and D” (PLoS ONE, 2021)
Where “and” joins values, the source holds several entries; their conditions need not be identical. Equal values may be shown once.

Tests used:
[1] = system: A/PR/8/34 virus; experiment: Influenza A viral growth assay (viral titer of culture media); assay type: cell-based, influenza A H1N1 virus; design: viral titer of culture media, individual replicate / viral titer of culture media, ave: unit not given here; conditions: A/PR/8/34 (PR8), 12.5uM, average of #1-3 exp (n=9)
[2] = system: A/WSN/33 virus; experiment: as above; assay type: cell-based, influenza A H1N1 virus; conditions: A/WSN/33 (WSN), 12.5uM, average of #1-3 exp (n=9)
[3] = system: A/PR/8/34 virus; experiment: RT-qPCR of viral mRNAs (NP, NS1, PA, PB1, PB2, M2) in infected MDCK cells; assay type: cell-based, influenza A H1N1 virus
[4] = system: A/PR/8/34 virus; assay type: cell-based; conditions: 12.5 μM, 24h WB
[5] = system: canine interferon-β (Ifn-β); experiment: RT-qPCR of Ifn-β mRNA in MDCK cells with or without A/PR/8/34 virus; assay type: cell-based; conditions: 12.5uM, relative to virus - DMSO; for MDCK IFN-b mRNA, ave: ave of #1-3 exp; for MDCK IFN-b mRNA, individual replicates: replicates 1-3 of #1, #2, #3 exp, listed as Cyclobakuchiol B
[6] = system: NAD(P)H quinone oxidoreductase 1 (Nqo1); experiment: RT-qPCR of Nqo1 mRNA in MDCK cells with or without A/PR/8/34 virus; assay type: cell-based, canine; conditions: for NQO1 Canis lupus mRNA, ave / NQO1 Canis lupus mRNA, individual replicates: 12.5uM, MDCK, relative to virus - DMSO; for NQO1 Canis lupus mRNA, ave: ave of #1-3 exp; for NQO1 Canis lupus mRNA, individual replicates: replicates 1-3 of #1, #2, #3 exp, listed as Cyclobakuchiol B
[7] = system: Nrf2; experiment: Nrf2 reporter assay (dual luciferase system) in MDCK cells; assay type: cell-based, canine
Protocol: An Nrf2 reporter assay based on the dual luciferase system was performed as previously described. The plasmid pNQO1-ARE (antioxidant response element)-Fluc, provided by Yamamoto M., expressed a Firefly luciferase gene driven by Nrf2 activation, while the plasmid pRL-TK-Rluc vector (Promega, CA, USA) expressed a Renilla luciferase gene driven by the herpes simplex viral thymidine kinase promoter as an internal control. MDCK cells were seeded in a 24-well plate at 1 × 10^5 cells/well and transfected with pNQO1-ARE-luc (0.25 μg) and pRL-TK-Rluc (0.25 μg). At 24 h post-transfection, the cells were treated with 12.5 μM cyclobakuchiols A–D in the infection medium at 37°C under 5% CO2. DMSO (0.125%) and 12.5 μM 1 were used as negative and positive controls, respectively. Total RNA was extracted from the MDCK cell lysates after 24 h of incubation. The levels of Firefly and Renilla luciferase mRNAs were analyzed by RT-qPCR and normalized to that of β-actin mRNA.

[8] = system: A/PR/8/34 virus; experiment: Immunofluorescence staining of viral NP in influenza A virus-infected MDCK cells; conditions: for NP/DAPI (%) ave: average of 9 wells
[9] = system: A/WSN/33 virus; experiment: as above; conditions: WSN
Protocol: MDCK cells were seeded on a 96-well plate at 1 × 10^4 cells/well. […] Each mixture was added to the cells at 37°C in the presence of 5% CO2. […] After influenza A viral infection for 24 h, the cells were fixed with 4% paraformaldehyde in phosphate-buffered saline (PBS) for 30 min at 4°C and subsequently permeabilized by the addition of 0.3% Triton X-100 for 20 min at 25°C. A mouse primary antibody was used to detect the NP of A/PR/8/34 or A/WSN/33 viruses (FluA-NP 4F1; SouthernBiotech, AL, USA). Alexa Fluor488-conjugated goat anti-mouse IgG (H + L) antibody (Thermo Fisher Scientific) was used as the secondary antibody. Cell nuclei were then stained using diamidino-2-phenylindole (DAPI) (Thermo Fisher Scientific). Wells were photographed using a fluorescence microscope (BIOREVO BZ-X700; Keyence, Osaka, Japan). The proportion of influenza A NP-positive cells per DAPI-positive cells was calculated based on measurements recorded using BZ-X Analyzer software (Keyence).

[10] = MDCK cells, PR8 virus, relative to DMSO (about 1), ave of #1-3 exp (9 values)
[11] = MDCK cells, PR8 virus, relative to DMSO, replicates 1-3 of #1, #2, #3 exp, listed as Cyclobakuchiol B

C=C[C@]1(C)CCC(C(=C)C)C(c2ccc(O)cc2)C1 (stereo in doubt) [cyclobakuchiol B]
viral titer of culture media, ave ([1]; 12h): 24444.4
viral titer of culture media, ave ([1]; 48h): 41111.1
viral titer of culture media, ave ([1]; 72h): 58888.9
viral titer of culture media, ave ([2]; 12h): 12633.3
viral titer of culture media, ave ([2]; 24h): 25455556
viral titer of culture media, ave ([2]; 48h): 275666667
viral titer of culture media, ave ([2]; 72h): 208055556
PR8 NP gene expression qPCR, ave ([3]; MDCK PR8, NP mRNA, relative (DMSO about 1), average of #1-3 exp (n=9)): 0.03219
PR8 NP gene expression qPCR, individual replicate ([3]; MDCK PR8, NP mRNA, relative (DMSO about 1), replicates of #1-3 exp, listed as Cyclobakuchiol B): 0.01121 and 0.02587 and 0.02406 and 0.03207 and 0.05973 and 0.04959 and 0.06567 and 0.01197 and 0.009584
PR8 NS1 gene expression qPCR, ave ([3]; MDCK PR8, NS1 mRNA, relative (DMSO about 1), average of #1-3 exp (n=9)): 0.02013
PR8 NS1 gene expression qPCR, individual replicate ([3]; MDCK PR8, NS1 mRNA, relative (DMSO about 1), replicates of #1-3 exp, listed as Cyclobakuchiol B): 0.008731 and 0.02017 and 0.01871 and 0.02102 and 0.03896 and 0.02064 and 0.02879 and 0.01388 and 0.01026
PR8 PA gene expression qPCR, ave ([3]; MDCK PR8, PA mRNA, relative (DMSO about 1), average of #1-3 exp (n=9)): 0.02293
PR8 PA gene expression qPCR, individual replicate ([3]; MDCK PR8, PA mRNA, relative (DMSO about 1), replicates of #1-3 exp, listed as Cyclobakuchiol B): 0.01293 and 0.01727 and 0.01489 and 0.01881 and 0.04016 and 0.03375 and 0.04497 and 0.01194 and 0.01167
PR8 M2 gene expression qPCR, ave [3, 10]: 0.0246
PR8 PB1 gene expression qPCR, ave [3, 10]: 0.01874
PR8 PB2 gene expression qPCR, ave [3, 10]: 0.02588
PR8 M2 gene expression qPCR, individual replicates [3, 11]: 0.01123 and 0.02732 and 0.01583 and 0.02218 and 0.04353 and 0.0372 and 0.04279 and 0.01139 and 0.009915
PR8 PB1 gene expression qPCR, individual replicates [3, 11]: 0.01046 and 0.01271 and 0.006702 and 0.01001 and 0.03897 and 0.03125 and 0.03696 and 0.01163 and 0.009984
PR8 PB2 gene expression qPCR, individual replicates [3, 11]: 0.01333 and 0.02659 and 0.01745 and 0.02138 and 0.03944 and 0.03441 and 0.05711 and 0.01315 and 0.01011
NP/b-actin ave ([4]; average of 3 experiments): 0.58
NS1/b-actin ave ([4]; average of 3 experiments): 0.5288
NP mean (western blot signal intensity, ImageJ) ([4]; single experiment): 62.433 and 67.763 and 96.513
NP/b-actin ([4]; single experiment): 0.7275 and 0.4304 and 0.582
NS1/b-actin ([4]; single experiment): 0.4321 and 0.5028 and 0.6516
NS1 mean (western blot signal intensity, ImageJ) ([4]; single experiment): 72.927 and 75.866 and 57.321
MDCK IFN-b mRNA, ave ([5]; virus +): 5.577
MDCK IFN-b mRNA, individual replicates ([5]; virus +): 1.734 and 10.09 and 8.268 and 12.9454 and 4.2 and 4.194 and 4.358 and 1.919 and 2.486
MDCK IFN-b mRNA, ave ([5]; virus -): 2.313
MDCK IFN-b mRNA, individual replicates ([5]; virus -): 0.5929 and 0.6599 and 7.314 and 8.038 and 1.086 and 0.609 and 1.136 and 0.5738 and 0.8068
relative mRNA level of Nqo1 compared with 5-treated cells [6]: significantly higher
NQO1 Canis lupus mRNA, ave ([6]; virus + (PR8)): 1.527
NQO1 Canis lupus mRNA, individual replicates ([6]; virus + (PR8)): 1.793 and 1.729 and 1.393 and 1.933 and 1.0008 and 1.009 and 1.147 and 1.683 and 2.053
NQO1 Canis lupus mRNA, ave ([6]; virus -): 1.333
NQO1 Canis lupus mRNA, individual replicates ([6]; virus -): 1.179 and 1.391 and 1.475 and 1.419 and 1.382 and 1.189 and 1.372 and 1.36 and 1.235
relative mRNA level of Nqo1 compared with DMSO ([6]; without A/PR/8/34 virus, 12.5 μM, 24 h): significantly upregulated
Nrf2 activation (reporter assay) in contrast to DMSO ([7]; 12.5 μM, 24 h, MDCK cells): induced
pNQO1-ARE-Luc NRF2 reporter assay, ave ([7]; 12.5uM, relative to DMSO trans+, ave of #1-3 exp): 1.319
pNQO1-ARE-Luc NRF2 reporter assay, individual replicates ([7]; 12.5uM, relative to DMSO trans+, two values each of #1, #2, #3 exp, listed as Cyclobakuchiol B): 1.305 and 0.9752 and 1.512 and 1.4747 and 1.32 and 1.325
percentage of influenza A NP-positive cells relative to DMSO ([8]; A/PR/8/34, 3.1 μM, 24 h, Fig 4B): significantly reduced
NP/DAPI (%) ave ([8]; A/PR/8/34, 3.13 uM): 5.089%
NP/DAPI (%) ave ([8]; A/PR/8/34, 6.25 uM): 1.925%
NP/DAPI (%) ave ([8]; A/PR/8/34, 12.5 uM): 1.075%
NP/DAPI (%) ave ([8]; A/PR/8/34, 25 uM): 0.927%
IC50 ([8]; Influenza A virus, PR/8, MDCK, read-out: half maximal (50%) inhibitory concentration (IC50)): 2400 ± 600 nM
NP/DAPI (%) ave ([9]; 3.13uM, ave of 9 values (3 exp)): 30.5534%
NP/DAPI (%) ave ([9]; 6.25uM, ave of 9 values (3 exp)): 28.157%
NP/DAPI (%) ave ([9]; 12.5uM, ave of 9 values (3 exp)): 30.5618%
NP/DAPI (%) ave ([9]; 25uM, ave of 9 values (3 exp)): 32.0683%
NP/DAPI (%) ave ([9]; ave summary, 3.13%): 30.5534%
NP/DAPI (%) ave ([9]; ave summary, 6.25%): 28.157%
NP/DAPI (%) ave ([9]; ave summary, 12.50%): 30.5618%
NP/DAPI (%) ave ([9]; ave summary, 25%): 32.0683%
